# Test results taken from patent publication US20250127889A1, “IMMUNOSTIMULATORY COMPOSITION” (Reiko SHINKURA, priority 2021, published 2025).
# B1: BAFF: B-cell activating factor, mimics interaction with DCs (protein, UniProt Q9WU72 127-309, looked up)
# Tumor necrosis factor ligand …: AFQGPEETEQDVDLSAPPAPCLPGCRHSQHDDNGMNLRNIIQDCLQLIADSDTPTIRKGTYTFVPWLLSFKRGNALEEKENKIVVRQTGYFFIYSQVLYTDPIFAMGHVIQRKKVHVFGDELSLVTLFRCIQNMPKTLPNNSCYSAGIARLEEGDEIQLAIPRENAQISRNGDDTFFGALKLL
# What was measured:
# [1] = test system: CD11b expression in splenic B cells; assay: CD11b expression in stimulated splenic B cells in the presence of TLR and NOD2 inhibitors; type: cell-based, Balb/c mice
# TNF-α = assay: Oral adjuvant with OVA as antigen, serum TNF-α ELISA; type: in vivo, C57BL/6 mice; settings: oral immunization with OVA 1 mg 3 times every 2 weeks, blood on second day after third immunization
# Method: Serum TNF-α levels were measured in accordance with the protocol of mouse TNF-α ELISA kit (Invitrogen Corporation, BMS607-3).
# OVA-specific IgA = assay: Oral immunization with OVA plus adjuvant, ELISA of OVA-specific IgA in stools; type: in vivo, mice; settings: OVA 1 mg with or without adjuvant on Day 0 and Day 16, stools Day 21
# Method: Stools were collected on Day 21, and OVA-specific antibody measurement was performed by enzyme-linked immunosorbent assay (ELISA).
# The stools were suspended in 10-times weight/volume (w/v) PBS. After performing centrifugation (8,000 g, 15 minutes), the supernatant was collected as a fecal extract. A plate was precoated with 1 mg/ml OVA overnight, followed by blocking with PBS containing 1% (w/v) bovine serum albumin at room temperature for 1 hour. Then, a serially diluted fecal extract was added to the plate, and the plate was incubated at room temperature for 1 hour. Relative avidity of IgA was detected using alkaline phosphatase-labeled goat anti-mouse IgA (manufactured by Southern Biotech). After incubation overnight at 4° C., optical density (OD) values at 405 nm were measured using TriStar Multimode Reader LB 942 (manufactured by Berthold Technologies GmbH & Co. KG).
# [2] = test system: CD11b expression in splenic naive B cells; assay: Stimulation of splenic naive B cells in vitro, CD11b expression by flow cytometry; type: cell-based, Balb/c mice
# Method: (§1) Splenic B cells were negatively sorted from the spleens of 8-week-old Balb/c mice using a B cell isolation kit (Miltenyi Biotec B.V. & Co. KG). The splenic B cells (concentration: 5×10^5/ml) were cultured in RPMI1640 medium, and 13 types of independent stimuli were each applied thereto. Anti-mouse IgM (15 μg/ml; Jackson ImmunoResearch Laboratories Inc.) • 2. Anti-mouse-CD40 (HM40-3, 500 ng/ml; manufactured by BioLegend, Inc.) • 3. BAFF (50 ng/ml; BioLegend, Inc.) • 4. Pam3CSK4 (1 μg/ml, InvivoGen) • 5. Poly I:C (25 ng/ml, InvivoGen) • 6. LPS (50 ng/ml, Sigma-Aldrich, Inc.) • 7. Flagellin (20 ng/ml, Sigma-Aldrich, Inc.) • 8. Imiquimod (R837, 5 ng/ml; InvivoGen) • 9. CpG (20 μg/ml, GeneDsign Inc.) • 10. […] Heat-killed S. enterica (10^8 CFU/ml) • 12. Heat-killed B. bifidum (10^7 CFU/ml) • 13. Heat-killed B. breve (10^7 CFU/ml)
# For MDP stimulation, purified splenic B cells (5×10^5/ml) were cultured in RPMI1640 medium supplemented with N-acetylmuramyl-L-alanyl-D-isoglutamine hydrate (1 μg/ml; Sigma-Aldrich Inc.).
# PP GC = assay: In vivo imaging of transplanted iGB cells induced by pre-stimulation (entry into PP GC); set-up: species or system Balb/c mice; settings: splenic naive B cells pre-stimulated 3 days, cultured on 40LB cells 4 days, injected i.v.
# Method: Then, 1×10^5 B220^+ B cells were isolated from the stimulated cells, and subsequently, the cells were seeded onto 40LB feeder cells supplemented with rIL-4 (1 ng/ml; BioLegend, Inc.) to induce iGB cells. As a control group, splenic naive B cells not subjected to stimulation were seeded onto the 40LB feeder cells supplemented with rIL-4 (1 ng/ml; BioLegend, Inc.). After culturing for 4 days, naive B-40LB cells, pam3CSK4-40LB cells, E. coli-40LB, IgM-40LB, and CpG-40LB cells of 3×10^5 iGB cells (B220^+) were isolated, labeled with CellTracker Orange CMTMR fluorescent dye (Invitrogen Corporation), and then separately injected intravenously into mice (Balb/c, 8 to 12 weeks old) together with 10 μg of AF488 anti-mouse MAdCAM-1 (BioLegend, Inc. mAb MECA-367) to identify HEV. Under anesthesia, 1 μg of AF647 anti-mouse IgA (Southern Biotech) was directly injected into the PPs of the same mice into which iGB cells were transferred, to stain the IgA^+ cells for GC identification. Localization of intravenously injected labeled iGB cells was observed using a microscope LSM880 (Carl Zeiss AG) and ZEN 2009 (Carl Zeiss AG) analysis software.
# splenic naive B cells = assay: B cell proliferation / number after in vitro stimulation; type: cell-based, Balb/c mice; settings: compared to B cells stimulated with anti-IgM, anti-CD40, BAFF, poly I:C, flagellin, imiquimod
# Method: as §1
# itgam (CD11b) = assay: qPCR analysis of itgam in B cells after stimulation; type: cell-based, Balb/c mice
# Method: About 1×10^4 PP GC B cells (PNA^hiB220^+ cells) and about 1×10^4 non-GC PP B cells (PNA^loB220^+) were each sorted. RNAs were extracted from the isolated cells using NucleoSpin RNA XS (Takara Bio Inc.), and cDNAs were synthesized using GoScript (registered trademark) Reverse Transcriptase (Promega Corporation). Using KAPA SYBR (registered trademark) FAST qPCR Master Mix (2×) Kit (Kapa Biosystems, Inc.), real-time PCR was performed in triplicate on an optical 384-well PCR plate (F. Hoffmann-La Roche Ltd) using LightCycler 480 (F. Hoffmann-La Roche Ltd). Gene expression levels were normalized to the expression level of the housekeeping gene β-actin. The following primers were used for the analysis.
# Splenic B cells were negatively sorted from the spleens of 8-week-old Balb/c mice using a B cell isolation kit (Miltenyi Biotec B.V. & Co. KG). The splenic B cells (concentration: 5×10^5/ml) were cultured in RPMI1640 medium, and 13 types of independent stimuli were each applied thereto. Anti-mouse IgM (15 μg/ml; Jackson ImmunoResearch Laboratories Inc.) • 2. Anti-mouse-CD40 (HM40-3, 500 ng/ml; manufactured by BioLegend, Inc.) • 3. BAFF (50 ng/ml; BioLegend, Inc.) • 4. Pam3CSK4 (1 μg/ml, InvivoGen) • 5. Poly I:C (25 ng/ml, InvivoGen) • 6. LPS (50 ng/ml, Sigma-Aldrich, Inc.) • 7. Flagellin (20 ng/ml, Sigma-Aldrich, Inc.) • 8. Imiquimod (R837, 5 ng/ml; InvivoGen) • 9. […]
# [3] = test system: PNAhighB220+ PP GC B cells; assay: Oral administration of heat-killed bacteria or pam3CSK4 to WT mice, PP GC B cells after 2 days; settings: within 2 days
# Method: Mice orally administered with 100 μl of PBS were prepared as controls. 2 days later, the PPs of these mice were excised, and B cells in the GCs were analyzed using Spectral Cell Analyzer SA3800 (Sony Biotechnology Inc.), as described above.
molecule,measurement,setting,value
CN(CCc1nc2ccccc2n1CC(=O)Nc1ccc2c(c1)CCC2)C(=O)c1ccccc1 [NOD2 inhibitor],CD11b expression in B cells stimulated with pam3CSK4 and heat-killed E. coli with inhibitor,[1]; NOD2 inhibitor 30 μM,strongly suppressed
CpG-ODN1826,serum TNFα concentration,TNF-α,cause increase
"OVA: ovalbumin, orally administered model antigen",OVA-specific IgA in the stools,OVA-specific IgA,did not increase
N-acetylmuramyl-L-alanyl-D-isoglutamine hydrate [MDP],induction of CD11b expression by NOD2 ligand,"[2]; purified splenic B cells, MDP 1 μg/ml",did not induce
CCOC(=O)C1=CCCC[C@H]1S(=O)(=O)Nc1ccc(F)cc1Cl [TLR4 inhibitor],proportion of CD11b+ B cells stimulated with pam3CSK4 and heat-killed E. coli when inhibitor was used,"[1]; inhibitor 1 μM, pam3CSK4 1 μg/ml, heat-killed E. coli 10^7 CFU/ml",did not increase
pam3CSK4,proportion of CD11b+ B cells in stimulated B cells,"[2]; splenic naive B cells, 3 days stimulation",27.6%
same,"entry into GC of iGB cells stimulated in advance, after intravenous injection into mice",PP GC,most of the cells entered GC
same,OVA-specific IgA in the stools,OVA-specific IgA,increased
same,number of B cells after 3 days of culturing,splenic naive B cells,significantly increased
same,expression of itgam (CD11b) in B cells,itgam (CD11b),increased
same,number of PP GC B cells,[3],increased
same,proportion of PP GC B cells,[3],increased
B1,induction of CD11b expression in naive splenic B cells,"[2]; in vitro stimulation, 3 days culture, flow cytometry",did not induce
